According to US6331555A, “Treatment of platelet derived growth factor related disorders such as cancers” (priority 1999, dated 2001):
Like-named read-outs stand apart in the source and are kept apart here.

Assays:
C6 cells = test: Intracerebral C6 tumor, athymic rats, survival; type: in vivo, rat; conditions: IC C6, athymic rats
Description: FIG. 5. In two separate experiments, C6 cells (5×10^4 cells in 20 μL [Expt #1] or 5 μL [Expt #2]) were implanted into the cerebrum of athymic rats. […] V=vehicle control. n=7 to 8 animals per group. * P=0.0002; ** P=0.0003 compared to vehicle control.
For the rat IC model, rats (Wistar, Sprague Dawley, Fisher 344, or athymic R/Nu; approximately 200 g) were anesthetized by an IP injection of 100 mg/kg Ketaset (ketamine hydrochloride; Aveco, Fort Dodge, Iowa) and 5 mg/kg Rompun (xylazine, 2% solution; Bayer, Germany). After onset of anesthesia, the scalp was shaved and the animal was oriented in a stereotaxic apparatus (Stoelting, Wood Dale, Ill.). The skin at the incision site was cleaned 3 times with alternating swabs of 70% ethanol and 10% Povidone-Iodine. A median 1.0-1.5 cm incision was made in the scalp using a sterile surgical blade. The skin was detached slightly and pulled to the sides to expose the sutures on the skull surface. A dental drill (Stoelting, Wood Dale, Ill.) was used to make a small (1-2 mm diameter) burrhole in the skull approximately 1 mm anterior and 2 mm lateral to the bregma. The cell suspension was drawn into a 50 μL Hamilton syringe fitted with a 23 or 25 ga standard bevel needle. […]

A431 = test: Tumor cell line growth; type: cell-based; conditions: Homo sapiens, A-431, 96 h; epidermoid, 4 days
Description: (§1) The assay measures protein content of acid-fixed cells using the counterion binding dye sulforhodamine B (SRB, Sigma). […] For other cell lines, the cells (2000 cells/well in 100 μL) were introduced into wells immediately after dispensing the drug solutions. After 4 days (37° C., 5% CO2) the monolayers were washed 3 times with PBS and fixed with 200 μL ice-cold 10% TCA (Fisher Scientific), and kept at 4° C. for 60 min. The TCA was removed and the fixed monolayers were washed 5 times with tap water and allowed to dry completely at room temperature on absorbent paper. The cellular protein was stained for 10 min with 100 μL 0.4% SRB dissolved in 1% acetic acid. After 5 washes with tap water, the dye was solubilized in 10 mM Tris base (100 μL per well) and absorbance read at 570 nm on a Dynatech plate reader model MR5000. Growth inhibition data are expressed as a percentage of absorbance detected in control wells which were treated with 0.4% DMSO alone. DMSO controls were not different from cells grown in regular growth medium. IC50 values were determined using a four parameter curve fit function.
(§2) For K562, DlB, L1210, 7TDl, T27A, and Colo320 DM cells, an MTT assay was used to assess cell growth. […] The cells were incubated at 37° C. for 4 days in a humidified 7% CO2 atmosphere. At the end point, […] of MTT (5 mg/mL in PBS, Sigma) was added to each well. The plates were incubated at 37° C. for 4 hr followed by addition of […] of solubilization solution (20% w/v of SDS in 50% N, N-dimethylformamide, pH 4.7) to each well. The plates were incubated overnight in a sealed container with a humidified atmosphere. The absorbance was determined at 570 nm wavelength with a reference wavelength of 630 nm using an ELISA plate reader.

U118MG = test: Tumor cell line growth; type: cell-based; conditions: Homo sapiens, U-118-MG, 96 h; glioma, 4 days
Description: as §1, §2

Calu-6 = test: Tumor cell line growth; type: cell-based; conditions: Homo sapiens, Calu-6, 96 h; lung, 4 days
Description: as §1, §2

SF763 = test: Tumor cell line growth; type: cell-based
Description: as §1, §2

U1242 = test: Tumor cell line growth; type: cell-based; conditions: 96 h; glioma, 4 days
Description: as §1, §2

SKOV3T = test: Tumor cell line growth; type: cell-based; conditions: Homo sapiens
Description: as §1, §2

HBL100 = test: Tumor cell line growth; type: cell-based; conditions: Homo sapiens, HBL-100, 96 h; breast, 4 days
Description: as §1, §2

C81-61 = test: Tumor cell line growth; type: cell-based; conditions: Homo sapiens, C8161, 96 h; melanoma, 4 days
Description: as §1, §2

BT549 = test: Tumor cell line growth; type: cell-based; conditions: Homo sapiens, BT-549, 96 h; breast, 4 days
Description: as §1, §2

SF767T = test: Tumor cell line growth; type: cell-based; conditions: Homo sapiens
Description: as §1, §2

MCF7/HER2 = test: Tumor cell line growth; type: cell-based; conditions: Homo sapiens, MCF7, 96 h; breast, 4 days
Description: as §1, §2

U138MG = test: Tumor cell line growth; type: cell-based; conditions: Homo sapiens, U138-MG, 96 h; glioma, 4 days
Description: as §1, §2

MCF7 mammary tumor = test: SC xenograft in mice; type: in vivo, human
Description: (§3) Cell lines were grown in appropriate medium (see Appendix 1). Cells were harvested at or near confluency with 0.05% Trypsin-EDTA and pelleted at 450×g for 10 min. Pellets were resuspended in sterile PBS or media (without FBS) to a particular concentration and the cells were implanted into the hindflank of mice. Tumor growth was measured over 3 to 6 weeks using venier calipers. Tumor volumes were calculated as a product of length×width×height unless otherwise indicated. P values were calculated using the Students' t-test.

Calu-6 lung tumor = test: SC xenograft in mice; type: in vivo, human; conditions: nu/nu, 20 mg/kg/day, day 28
Description: as §3

PA-1 ovarian tumor = test: SC xenograft in mice; type: in vivo, human; conditions: nu/nu, 20 mg/kg/day, day 36
Description: as §3

U118T glioma = test: SC xenograft in mice; type: in vivo, human; conditions: nu/nu, 15 mg/kg/day, day 47
Description: as §3

SF763T glioma = test: SC xenograft in mice; type: in vivo, human
Description: as §3

[1] = PDGF-R expression ++, read-out: SRB

With Cc1oncc1C(=O)Nc1ccc(C(F)(F)F)cc1 [Compound A10, 5-methylisoxazole-4 carboxylic acid-(4-trifluromethyl)-anilide] the survival (C6 cells) was “slight but significant positive effect on the survival”, the IC50 (A431) was 34 µM and the IC50 (U118MG) was 150 µM. For the same molecule, the IC50 (Calu-6) was 70 µM, the IC50 (SF763; SF763, 96 h, glioma, 4 days, read-out: IC50) was 110 µM and the IC50 (SF763; SF763, PDGF-R expression -, read-out: SRB) was > 100 µM. It also gave an IC50 (U1242) of 19 µM, an IC50 (SKOV3T; 96 h, ovarian, 4 days, read-out: IC50) of 40 µM and an IC50 (SKOV3T; [1]) of 50 µM. The IC50 (HBL100) was > 400 µM, the IC50 (C81-61) was 40 µM and the IC50 (BT549) was > 400 µM. It also gave an IC50 (SF767T; 96 h, glioma, 4 days, read-out: IC50) of 3 µM, an IC50 (SF767T; [1]) of 3 µM and an IC50 (MCF7/HER2) of 116 µM. For the same molecule, the IC50 (U138MG) was > 400 µM, the “growth of xenograft” value (MCF7 mammary tumor; 12 to 20 mg/kg/day) was “failed to significantly inhibit the growth” and the “% Inhibition” value (MCF7 mammary tumor; SCID, 15 mg/kg/day, day 27, treatment from day 8) was 8%. For the same molecule, the “% Inhibition” value (Calu-6 lung tumor) was 64%, the “% Inhibition” value (PA-1 ovarian tumor) was 53% and the “% Inhibition” value (U118T glioma) was 57%. For the same molecule, the “% Inhibition” value (SF763T glioma; 20 mg/kg) was 89%, the “% Inhibition” value (SF763T glioma; nu/nu, 20 mg/kg/day, day 22) was 85% and the “In Vivo inhibition” value (SF763T glioma; xenografted athymic mice) was 89%.
